This note sets out measurements from ChEMBL document CHEMBL6109137, “Design, Synthesis, Evaluation, and SAR of 5-Phenylisoindoline Derivatives, a Potent Class of Small-Molecule Inhibitors Targeting the Programmed Cell Death-1/Programmed Cell Death-Ligand 1 (PD-1/PD-L1) Interaction” (J Med Chem, 2025).

Structures are written as SMILES. The source made the active and inactive calls. No cut-off for these calls is given here. Some results are limits rather than exact numbers.

Chain of Programmed cell death protein 1/Programmed cell death 1 ligand 1 (Q15116 whole entry): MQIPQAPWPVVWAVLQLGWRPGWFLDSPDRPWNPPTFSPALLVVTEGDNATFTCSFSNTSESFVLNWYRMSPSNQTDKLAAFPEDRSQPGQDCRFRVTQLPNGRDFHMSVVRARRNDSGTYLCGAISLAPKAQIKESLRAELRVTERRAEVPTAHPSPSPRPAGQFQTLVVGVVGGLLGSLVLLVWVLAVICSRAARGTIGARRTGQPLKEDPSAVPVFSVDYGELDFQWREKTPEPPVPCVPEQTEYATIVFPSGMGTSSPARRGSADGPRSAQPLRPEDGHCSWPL
Chain of Programmed cell death protein 1/Programmed cell death 1 ligand 1 (Q9NZQ7 whole entry): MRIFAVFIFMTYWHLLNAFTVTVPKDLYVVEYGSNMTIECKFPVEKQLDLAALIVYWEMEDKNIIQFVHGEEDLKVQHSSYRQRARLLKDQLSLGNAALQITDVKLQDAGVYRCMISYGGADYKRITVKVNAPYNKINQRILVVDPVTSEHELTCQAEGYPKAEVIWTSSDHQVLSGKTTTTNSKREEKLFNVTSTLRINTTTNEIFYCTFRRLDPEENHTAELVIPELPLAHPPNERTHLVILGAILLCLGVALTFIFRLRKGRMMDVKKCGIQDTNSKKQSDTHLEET

Test system in one series: not listed separately
The series is described as follows: Cytotoxicity against human PBMC cells assessed as inhibition of cell viability at 50 to 5000 nM by CCK8 assay. The series is classed as toxicity, cell-based. The following applies: 5 µM, dose 50-5000 nM. A general note: Tetrazolium dyes change colour on reduction, which living cells bring about.
As to `Cl.Clc1c(-c2ccc3c(c2)CNC3)cccc1-c1ccc2c(c1)OCCO2`, the Activity result is recorded as “Toxic”.

The next series has as its target Programmed cell death protein 1/Programmed cell death 1 ligand 1 (Homo sapiens, UniProt Q9NZQ7). As to the kind of experiment: Inhibition of interaction of PD-1/PD-L1 (unknown origin) by HTRF analysis. The series is classed as protein-complex assay.
Conditions: not given
Turning to `Clc1c(-c2ccc3c(c2)CNC3)cccc1-c1ccc2nonc2c1`, the IC50 (as a rule, the point on the concentration scale where inhibition reaches its midpoint) was 880 nM.
`N#Cc1c(-c2ccccc2)cccc1-c1ccc2c(c1)CNC2` displayed an IC50 of 47.6 nM.
With `N#Cc1c(-c2ccccc2)cccc1-c1ccc2c(c1)CNC2=O`, inhibition was half-maximal at 145 nM (IC50).
For the molecule `O=C([C@@H]1CCCN1)N1Cc2ccc(-c3cccc(-c4ccccc4)c3Cl)cc2C1`, the IC50 was determined as 17.9 nM.
Regarding `N#Cc1c(-c2ccccc2)cccc1-c1ccc2c(c1)C(=O)NC2`, the IC50 came to 1520 nM.
Molecule `Cc1c(-c2ccc3c(c2)CNC3)cccc1-c1ccc2c(c1)OCCO2` gave an IC50 of 35.8 nM.
`COc1c(-c2ccccc2)cccc1-c1ccc2c(c1)CNC2` registered an IC50 of 115 nM.
On to `O=C([C@@H]1CCCCN1)N1Cc2ccc(-c3cccc(-c4ccc5c(c4)OCCO5)c3Cl)cc2C1`, for which the IC50 stood at 26.2 nM.
As for `Fc1c(-c2ccccc2)cccc1-c1ccc2c(c1)CNC2`, the IC50 came to 95.6 nM.
The same measure, in the same setting: to `Cc1c(-c2ccccc2)cccc1-c1ccc2c(c1)CN(C(=O)[C@@H]1CCCCN1)C2` belongs 19.3 nM; to `C[C@H](N)C(=O)N1Cc2ccc(-c3cccc(-c4ccccc4)c3Cl)cc2C1`, 12.9 nM; to `C[C@H](N)C(=O)N1Cc2ccc(-c3cccc(-c4ccccc4)c3C#N)cc2C1`, 50 nM.
The same measure, in the same setting: with `Nc1c(-c2ccccc2)cccc1-c1ccc2c(c1)CNC2` the figure was 194 nM; with `Cc1c(-c2ccccc2)cccc1-c1ccc2c(c1)CN(C(=O)[C@@H](N)CO)C2`, 94.8 nM.
`C[C@H](N)C(=O)N1Cc2ccc(-c3cccc(-c4ccc5c(c4)OCCO5)c3C#N)cc2C1` showed an IC50 of 24.5 nM.
With `O=C([C@@H]1CCCCN1)N1Cc2ccc(-c3cccc(-c4ccccc4)c3Cl)cc2C1`, the IC50 came to 11.4 nM.
Consider `Oc1c(-c2ccccc2)cccc1-c1ccc2c(c1)CNC2`, for which the IC50 was more than 10000 nM.
The molecule `Cc1c(-c2ccccc2)cccc1-c1ccc2c(c1)C(=O)NC2=O` came in with an IC50 of more than 10000 nM.
The molecule `NCC(=O)N1Cc2ccc(-c3cccc(-c4ccccc4)c3Cl)cc2C1` had an IC50 of 90.3 nM.
`COC(=O)C[C@H](N)C(=O)N1Cc2ccc(-c3cccc(-c4ccccc4)c3C)cc2C1`: the IC50 was 416 nM.
In turn, `N#Cc1c(-c2ccccc2)cccc1-c1ccc2c(c1)CN(C(=O)[C@@H]1CCCN1)C2` showed an IC50 of 85.7 nM.
`Clc1c(-c2ccccc2)cccc1-c1ccc2c(c1)CNC2` gave an IC50 of 9.4 nM.
`c1ccc(-c2cccc(-c3ccc4c(c3)CNC4)c2)cc1` returned an IC50 of more than 10000 nM.
On to `Cc1c(-c2ccccc2)cccc1-c1ccc2c(c1)CN(C(=O)[C@@H](N)CCCCN)C2`, for which the IC50 stood at 539 nM.
The molecule `Cc1c(-c2ccccc2)cccc1-c1ccc2c(c1)CN(C(=O)CN)C2` gave an IC50 of 293 nM.
As to `O=C([C@@H]1CCCN1)N1Cc2ccc(-c3cccc(-c4ccc5c(c4)OCCO5)c3Cl)cc2C1`, inhibition was half-maximal at 15.6 nM (IC50).
Still for that read-out and setting: to `Cc1c(-c2ccccc2)cccc1-c1ccc2c(c1)CN(C(=O)[C@@H](N)CC(=O)O)C2` belongs 142 nM.
Regarding `N#Cc1c(-c2ccccc2)cccc1-c1ccc2c(c1)CN(C(=O)[C@@H]1CCCCN1)C2`, inhibition was half-maximal at 64.2 nM (IC50).
Same read-out and setting: to `Cc1c(-c2ccccc2)cccc1-c1ccc2c(c1)CN(C(=O)[C@H](C)N)C2` belongs 30.4 nM; to `Cc1c(-c2ccccc2)cccc1-c1ccc2c(c1)CN(C(=O)[C@@H]1C[C@H](O)CN1)C2`, 84.5 nM.
`Cl.Clc1c(-c2ccc3c(c2)CNC3)cccc1-c1ccc2c(c1)OCCO2` showed an IC50 of 5.9 nM.
As to `Cc1c(-c2ccccc2)cccc1-c1ccc2c(c1)CN(C(=O)[C@H]1NCCC1O)C2` (stereo not given in full), the IC50 is 24.2 nM.
Consider `Cc1c(-c2ccccc2)cccc1-c1ccc2c(c1)CN(C(=O)[C@@H]1CCCN1)C2`, for which half-maximal inhibition (IC50) required 7.1 nM.
`N#Cc1c(-c2ccc3c(c2)CNC3)cccc1-c1ccc2c(c1)OCCO2` returned an IC50 of 18.5 nM.
For the molecule `N#Cc1c(-c2ccccc2)cccc1-c1ccc2c(c1)C(=O)NC2=O`, the IC50 was more than 10000 nM.

The target of a further series is T1, Programmed cell death protein 1/Programmed cell death 1 ligand 1 (Homo sapiens) (UniProt Q15116+Q9NZQ7). As to the kind of experiment: Inhibition of PD-1/PD-L1 (unknown origin) interaction in human PBMC cells assessed as increase in IFN-gamma level at 100 nM pretreated with anti-CD3/CD28 and PD-L1 followed by compound addition measured after 72 hrs by ELISA. The format is cell-based.
Conditions: not given
For orientation: ELISA stands for enzyme-linked immunosorbent assay.
In the case of `Clc1c(-c2ccccc2)cccc1-c1ccc2c(c1)CNC2`, the inhibition entry is “Active”.

Test system in the next series: not listed separately
As to the kind of experiment: Cytotoxicity against human PBMC cells assessed as inhibition of cell viability by CCK8 assay. The series is classed as toxicity, cell-based.
Conditions: not given
Regarding `Clc1c(-c2ccccc2)cccc1-c1ccc2c(c1)CNC2`, the IC50 is more than 5000 nM.
In the case of `O=C([C@@H]1CCCN1)N1Cc2ccc(-c3cccc(-c4ccc5c(c4)OCCO5)c3Cl)cc2C1`, the IC50 was more than 5000 nM.

Another series has as its target T1, Programmed cell death protein 1/Programmed cell death 1 ligand 1 (Homo sapiens). As to the kind of experiment: Inhibition of PD-1/PD-L1 (unknown origin) interaction in human PBMC cells assessed as increase in IFN-gamma level at 100 to 1000 nM pretreated with anti-CD3/CD28 and PD-L1 followed by compound addition measured after 72 hrs by ELISA. The format is cell-based. To be noted: dose 100-1000 nM.
With `Cl.Clc1c(-c2ccc3c(c2)CNC3)cccc1-c1ccc2c(c1)OCCO2`, the inhibition result was “inactive”.
